Consider 1 compound from patent US20220196659A1, “METHOD FOR DETERMINING EFFICACY” (LDN Pharma Limited, priority 2019, published 2022).

One test relates to pERK. In words: PD analysis: Western blotting of PBMCs from normal volunteers after a single naltrexone tablet. The class given is in vivo, human. The settings on record: Western blot. As for the experimental part: There were 5 treatment cohorts with 8 normal volunteers in each cohort. […] PBMCs were harvested at 0 and 48 h by ficoll extraction and lysed in cell lysis buffer. Western blotting was then performed on the samples, and pERK, tERK, BAX and p21 measured.
On the technique in general: A western blot detects proteins with antibodies after separation by electrophoresis.

In test [1] the test system is CD3+/CD8+ cells (killer T-cells). In words: CD3+ activation: CD69 expression of PBMCs cultured with LDN or NTX (flow cytometry). Type of test: cell-based. The settings on record: 48 h culture of PBMCs. As for the experimental part: Peripheral-blood mononuclear cells were isolated from whole blood or from the residue product of leucoreduction of whole blood from pathologically healthy donors using Histopaque-1077. The mononuclear fraction was harvested and red blood cell contamination removed by incubation in hypotonic ammonium chloride. Cells were washed in phosphate buffered saline (PBS) and platelet contamination removed by centrifugation at 200 g for 10 min, re-suspended at a concentration of 1×10^6 ml in RPMI-1640 culture medium. […] Peripheral-blood mononuclear cells were washed twice in wash buffer (PBS containing 1% (v/v) FBS and 0.09% (v/v) NaN3), and stained for 30 min at 4° C. with the relevant and stated antibodies for assessment of immune cell profile. Cells were washed in wash buffer and fixed in 4% paraformaldehyde for 20 min at 4° C. Expressions of the surface markers were analysed using a BD Bioscience LSR II flow cytometer with dedicated proprietary software.
A general note: A flow cytometer gives signals particle by particle.

Take `O=C1CC[C@@]2(O)[C@H]3Cc4ccc(O)c5c4[C@@]2(CCN3CC2CC2)[C@H]1O5` [naltrexone, morphinan-6-one,17-(cyclopropylmethyl)-4,5-epoxy-3,14-dihydroxy-(5+)]: the “level of pERK expression at 48 h compared to 0 h” value in the test with pERK (single dose 1 mg tablet) is given as “decreased”; in the test with pERK (single dose 3 mg tablet), “increased”; in the test on pERK (single dose 4.5 mg tablet), “decreased”; in the test with pERK (single dose 6 mg tablet) it was “decreased”; in the test with pERK (single dose 10 mg tablet), “decreased”. Besides, the “CD69 expression in CD3+/CD8+ cells” value in test [1] (10 nM naltrexone (LDN)) is on record as “increased”; in test [1] (10 uM naltrexone (NTX)), “did not increase”.
